# Laboratory results reported in PubChem BioAssay (NCI).
# Where “and” joins values, the source holds several entries; their conditions need not be identical. Equal values may be shown once.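 Values below derive from 48-hour exposures of cells grown in 96-well plates, with endpoints linearly interpolated between the two concentrations bracketing the appropriate inhibition level. GI50: concentration for 50% inhibition of growth. Definition used: TGI = concentration required for complete inhibition of growth.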
# Columns and labels:
# Assay in all cases: NCI tumour cell line growth inhibition, 48 h
# [1] = system: SK-MEL-2 melanoma
# [2] = system: LOX IMVI melanoma
# [3] = system: SNB-75 CNS
# [4] = system: SN12C renal
# [5] = system: LXFL 529 NSCLC
# [6] = system: SF-268 CNS
# [7] = system: SNB-19 CNS
# [8] = system: ACHN renal
# [9] = system: HOP-62 NSCLC
# [10] = system: TK-10 renal
# [11] = system: M14 melanoma
# [12] = system: OVCAR-5 ovarian
# [13] = system: NCI-H460 lung
# [14] = system: IGROV1 ovarian
# [15] = system: HOP-18 NSCLC
# [16] = system: SF-295 CNS
# [17] = system: SK-OV-3 ovarian
# [18] = system: UACC-257 melanoma
# [19] = system: HCT-116 colon
# [20] = system: K-562 leukemia
# [21] = system: HCT-15 colon
# [22] = system: KM20L2 colon
# [23] = system: M19-MEL melanoma
# [24] = system: MOLT-4 leukemia
# [25] = system: SF-539 CNS
# [26] = system: DMS 273 small cell lung
# [27] = system: A498 renal
# [28] = system: XF 498 CNS
# [29] = system: HOP-92 NSCLC
# [30] = system: COLO 205 colon
# [31] = system: OVCAR-4 ovarian
# [32] = system: RPMI-8226 leukemia
# [33] = system: CCRF-CEM leukemia
# [34] = system: OVCAR-8 ovarian
# [35] = system: SK-MEL-28 melanoma
# [36] = system: HL-60(TB) leukemia
# [37] = system: CAKI-1 renal
# [38] = system: SNB-78 CNS
# [39] = system: RXF 393 renal
# [40] = system: SR leukemia
# [41] = system: NCI-H23 lung
# [42] = system: A549 NSCLC
# [43] = system: NCI-H522 lung
# [44] = system: SK-MEL-5 melanoma
# [45] = system: HCC-2998 colon
# [46] = system: NCI-H226 lung
# [47] = system: UO-31 renal
# [48] = system: DLD-1 colon
# [49] = system: SW-620 colon
# [50] = system: OVCAR-3 ovarian
# [51] = system: EKVX NSCLC
# [52] = system: RXF-631 renal
# [53] = system: KM12 colon
# [54] = system: HT29 colon
# [55] = system: MALME-3M melanoma
# [56] = system: U251 CNS
# [57] = system: 786-0 renal
# [58] = system: UACC-62 melanoma
# [59] = system: DMS 114 small cell lung
# [60] = system: MDA-MB-435
# [61] = system: NCI/ADR-RES ovarian
# [62] = system: PC-3 prostate
# [63] = system: MDA-MB-231 breast
# [64] = system: DU-145 prostate
# [65] = system: BT-549 breast
# [66] = system: MDA-N
# [67] = system: P388 leukemia
structure (smiles),measurement,setting,value
CC(C)(C)c1nc2c(o1)C(=Nc1ccccc1)c1ccccc1C2=O,TGI,[1],6.99 µM
same,TGI,[2],4.14 µM
same,TGI,[3],13.6 µM
same,TGI,[4],14.4 µM
same,TGI,[5],50.1 µM
same,TGI,[6],21 µM
same,TGI,[7],27.5 µM
same,TGI,[8],26.6 µM
same,TGI,[9],31 µM
same,TGI,[10],59.6 µM
same,TGI,[11],6.1 µM
same,TGI,[12],29.4 µM
same,TGI,[13],19.9 µM
same,TGI,[14],33.6 µM
same,TGI,[15],20.9 µM
same,TGI,[16],10.2 µM
same,TGI,[17],63.4 µM
same,TGI,[18],4.45 µM
same,TGI,[19],12.8 µM
same,TGI,[20],44.8 µM
same,TGI,[21],27.9 µM
same,TGI,[22],85.8 µM
same,TGI,[23],2.32 µM
same,TGI,[24],> 100 µM
same,TGI,[25],8.5 µM
same,TGI,[26],11.3 µM
same,TGI,[27],36.4 µM
same,TGI,[28],9.66 µM
same,TGI,[29],23.8 µM
same,TGI,[30],63 µM
same,TGI,[31],10.2 µM
same,TGI,[32],50 µM
same,TGI,[33],> 100 µM
same,TGI,[34],26.2 µM
same,TGI,[35],10.8 µM
same,TGI,[36],16.6 µM
same,TGI,[37],64.9 µM
same,TGI,[38],43.7 µM
same,TGI,[39],14.7 µM
same,TGI,[40],> 100 µM
same,TGI,[41],5.29 µM
same,TGI,[42],23.5 µM
same,TGI,[43],10.2 µM
same,TGI,[44],2.97 µM
same,TGI,[45],42.6 µM
same,TGI,[46],23.5 µM
same,TGI,[47],24.3 µM
same,TGI,[48],38.1 µM
same,TGI,[49],18.4 µM
same,TGI,[50],6.24 µM
same,TGI,[51],41 µM
same,TGI,[52],51.9 µM
same,TGI,[53],50.3 µM
same,TGI,[54],57.8 µM
same,TGI,[55],3.01 µM
same,TGI,[56],14 µM
same,TGI,[57],64.3 µM
same,TGI,[58],5.08 µM
OCC(O)COc1ccc(Br)cc1 (stereo not given),TGI,[1],> 100 µM
same,TGI,[2],> 100 µM
same,TGI,[3],> 100 µM
same,TGI,[4],> 100 µM
same,TGI,[5],> 100 µM
same,TGI,[6],> 100 µM
same,TGI,[7],> 100 µM
same,TGI,[8],> 100 µM
same,TGI,[9],> 100 µM
same,TGI,[10],> 100 µM
same,TGI,[11],> 100 µM
same,TGI,[12],> 100 µM
same,TGI,[14],> 100 µM
same,TGI,[15],> 100 µM
same,TGI,[16],> 100 µM
same,TGI,[17],> 100 µM
same,TGI,[18],> 100 µM
same,TGI,[19],> 100 µM
same,TGI,[20],> 100 µM
same,TGI,[21],> 100 µM
same,TGI,[22],> 100 µM
same,TGI,[25],> 100 µM
same,TGI,[26],> 100 µM
same,TGI,[27],> 100 µM
same,TGI,[28],> 100 µM
same,TGI,[29],> 100 µM
same,TGI,[30],> 100 µM
same,TGI,[31],> 100 µM
same,TGI,[32],> 100 µM
same,TGI,[33],> 100 µM
same,TGI,[34],> 100 µM
same,TGI,[35],> 100 µM
same,TGI,[36],> 100 µM
same,TGI,[37],> 100 µM
same,TGI,[39],> 100 µM
same,TGI,[40],> 100 µM
same,TGI,[41],> 100 µM
same,TGI,[42],> 100 µM
same,TGI,[43],> 100 µM
same,TGI,[44],> 100 µM
same,TGI,[45],> 100 µM
same,TGI,[46],> 100 µM
same,TGI,[47],> 100 µM
same,TGI,[48],> 100 µM
same,TGI,[49],> 100 µM
same,TGI,[50],> 100 µM
same,TGI,[51],> 100 µM
same,TGI,[52],> 100 µM
same,TGI,[53],> 100 µM
same,TGI,[54],> 100 µM
same,TGI,[55],> 100 µM
same,TGI,[56],> 100 µM
same,TGI,[59],> 100 µM
same,TGI,[58],> 100 µM
CC[C@@H](C)[C@@H]1NC(=O)C(NC(=O)C(CC(C)C)N(C)C(=O)C2CCCN2C(=O)C(C)O)C(C)OC(=O)C(Cc2ccc(OC)cc2)N(C)C(=O)C2CCCN2C(=O)C(CC(C)C)NC(=O)C(C)C(=O)C(C(C)C)OC(=O)C[C@H]1O (stereo not given in full),TGI,[60],0.00316 µM and 0.00845 µM
same,TGI,[8],0.0204 µM and 0.053 µM
same,TGI,[10],0.0495 µM and 0.0741 µM
same,TGI,[11],0.00648 µM and 0.039 µM
same,TGI,[16],0.0115 µM and 0.0194 µM and 0.029 µM
same,TGI,[61],1.88 µM and 0.359 µM
same,GI50,[62],0.00251 µM
same,TGI,[62],0.0425 µM and 0.0487 µM
same,TGI,[63],0.0199 µM and 0.053 µM
same,TGI,[24],0.0547 µM and 0.0255 µM
same,TGI,[64],0.0504 µM
same,GI50,[38],1.65 pM
same,TGI,[39],0.01 µM and 0.0647 µM
same,TGI,[45],0.00511 µM and 0.0314 µM
same,TGI,[65],0.0967 µM
same,GI50,[66],0.0021 µM
same,TGI,[67],0.03 µM and < 0.0103 µM
same,TGI,[57],0.00827 µM and 0.0533 µM
